≈ marks a conversion by molar mass, not a printed value. Read-outs that look alike come from different tables or passages of the source.
Experiments:
Type in all cases: cell-based
Klebsiella spp. (ESBL) = assay: microbe, parasite or virus in culture; details: Klebsiella
[1] = test system: K. pneumoniae ATCC 13883 wild type and mutants; assay: MIC, wild type and GSK2251052 resistant mutants; details: Klebsiella pneumoniae
Summary of the method: (§1)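 MICs were determined following CLSI M7-A7 recommendations for aerobic bacteria. Strains were E. coli ATCC 25922, K. pneumoniae ATCC 13883, P. aeruginosa ATCC 27853 and six to ten laboratory-selected GSK2251052-resistant colonies of each, carrying mutations in the LeuRS editing domain.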

[2] = test system: E. coli ATCC 25922 wild type and mutants; assay: MIC, wild type and GSK2251052 resistant mutants; details: Escherichia coli
Summary of the method: as §1

[3] = test system: P. aeruginosa ATCC 27853 wild type and mutants; assay: MIC, wild type and GSK2251052 resistant mutants; details: Pseudomonas aeruginosa
Summary of the method: as §1

[4] = test system: Enterobacter aerogenes (WT); assay: microbe, parasite or virus in culture; details: Klebsiella aerogenes, Enterobacter aerogenes (WT)
[5] = test system: K. pneumoniae ATCC 13883 wild type and mutants; assay: MIC in M9 minimal media; details: Klebsiella pneumoniae, read-out: MICs in M9 minimal media
Protocol: (§2) Spontaneous Resistance Frequency was determined in vitro for GSK2251052 and the resistance mutants in E. coli ATCC 25922, K. pneumoniae ATCC 13883, and P. aeruginosa ATCC 27853 strains were characterized. GSK2251052 was prepared as described in U.S. Pat. No. 7,816,344 (the entire contents of which are hereby incorporated by reference herein). LB broth, Mueller Hinton II broth (adjusted), and Difco noble agar were obtained from Becton Dickinson (Cockeysville, Md., USA). M9 minimal broth containing 1×M9 salt, 0.5 μg/ML thiamine, 1 mM MgSO4, 0.1 mM CaCl2, 2% glucose, was obtained from Teknova (Hollister, Calif., USA). Antibacterial agents ciprofloxacin, ceftazidime, chloramphenicol, gentamycin, kanamycin, polymixin B, tobramycin and trimethoprim, and amino acids were obtained from Sigma Chemicals (St. Louis, Mo., USA). Strains were obtained from ATCC (Manassas, Va., USA).
(§3) Susceptibility tests were performed following the recommendations for aerobic bacteria (M7-A7) from the Clinical and Laboratories Standards Institute (CLSI).
(§4) The aminoacyl-tRNA synthetase enzyme, LeuRS, ensures the correct amino acid, leucine, is attached to tRNA^Leu. The LeuRS synthetic active site is capable of aminoacylating tRNA^Leu with amino acids structural similar to leucine (norvaline, norleucine, isoleucine and methionine). These mischarged tRNA^Leu are hydrolyzed by the editing domain, thus preventing the deleterious incorporation of incorrect amino acids into the growing polypeptide. The laboratory generated mutants were further tested for their ability to grow in defined media with exogenously added amino acids. Norvaline and norleucine, structurally similar to leucine, were tested in M9 minimal media. […]

[6] = test system: E. coli ATCC 25922 wild type and mutants; assay: MIC in M9 minimal media; details: Escherichia coli, read-out: MICs in M9 minimal media
Protocol: as §2, §3, §4

[7] = test system: P. aeruginosa ATCC 27853 wild type and mutants; assay: MIC in M9 minimal media; details: Pseudomonas aeruginosa, read-out: MICs in M9 minimal media
Protocol: as §2, §3, §4

[8] = test system: E. coli clinical isolates from subject E. coli 2; assay: GSK2251052 MIC of clinical isolates, subject E. coli 2; details: for MIC: Escherichia coli, read-out: GSK2251052 MIC GSK results
Protocol: Minimum inhibitory concentrations (MICs) were determined using the CLSI (Clinical and Laboratory Standards Institute, formerly NCCLS) recommended broth microdilution methodology [NCCLS, 2003] using defined media.
Almost all clinical isolates were determined to contain T247I in addition to a second mutation in editing domains 1 or 2. The second mutations include Asp251Asn, Ala323 Val, Arg344Cys/His and Asp345Ala. On Day 11 and at Follow Up a double mutant (R344H; D345A) was also isolated (see Table 14). For these clinical isolates, five independent colonies were characterized from day 6 to late follow-up, and leuS and promoter regions were sequenced from all isolates.

Structure (SMILES): NC[C@H]1OB(O)c2c(OCCCO)cccc21 [GSK2251052, (S)-3-aminomethyl-7-(3-hydroxy-propoxy)-3h-benzo[c][1,2]oxaborol-1-ol]
- MIC90 (Klebsiella spp. (ESBL)): 1 µg/mL (≈ 4.22 µM)
- MIC90 (Klebsiella spp. (ESBL); read-out: susceptibility category of MIC90): < 4 µg/mL
- MIC ([1]; ATCC13883, K wt, leuRS mutation none, read-out: MIC): 1 µg/mL (≈ 4.22 µM)
- MIC ([1]; ATCC13883, K. pneumoniae WT, read-out: GSK2251052 MIC): 1 µg/mL (≈ 4.22 µM)
- MIC ([1]; ATCC13883, mutant K104, leuRS D345Y): > 256 µg/mL
- MIC ([1]; ATCC13883, mutant K105, leuRS G229R): > 256 µg/mL
- MIC ([1]; ATCC13883, mutant K107, leuRS S227F): 256 µg/mL (≈ 1080 µM)
- MIC ([1]; ATCC13883, mutant K108, leuRS T248P): > 256 µg/mL
- MIC ([1]; ATCC13883, mutant K109, leuRS T248P (ditto mark)): > 256 µg/mL
- MIC ([1]; ATCC13883, mutant K110, leuRS V338L): 256 µg/mL (≈ 1080 µM)
- MIC ([2]; ATCC25922, E wt, leuRS mutation none, read-out: MIC): 1 µg/mL (≈ 4.22 µM)
- MIC ([2]; ATCC25922, E. coli WT, read-out: GSK2251052 MIC): 1 µg/mL (≈ 4.22 µM)
- MIC ([2]; ATCC25922, mutant E101, leuRS Y246H): 64 µg/mL (≈ 270 µM)
- MIC ([2]; ATCC25922, mutant E102, leuRS D345G): 256 µg/mL (≈ 1080 µM)
- MIC ([2]; ATCC25922, mutant E103, leuRS D345G (ditto mark)): 256 µg/mL (≈ 1080 µM)
- MIC ([2]; ATCC25922, mutant E104, leuRS Y246H): 64 µg/mL (≈ 270 µM)
- MIC ([2]; ATCC25922, mutant E105, leuRS D345G): 256 µg/mL (≈ 1080 µM)
- MIC ([2]; ATCC25922, mutant E106, leuRS D345G): 256 µg/mL (≈ 1080 µM)
- MIC ([2]; ATCC25922, mutant E107, leuRS G229S): > 256 µg/mL
- MIC ([2]; ATCC25922, mutant E108, leuRS D345G): 256 µg/mL (≈ 1080 µM)
- MIC ([2]; ATCC25922, mutant E109, leuRS D345G (ditto mark)): 256 µg/mL (≈ 1080 µM)
- MIC ([2]; ATCC25922, mutant E110, leuRS Duplication D345 Y346): > 256 µg/mL
- MIC ([3]; ATCC27853, P wt, leuRS mutation none, read-out: MIC): 4 µg/mL (≈ 16.9 µM)
- MIC ([3]; ATCC27853, P. aeruginosa WT, read-out: GSK2251052 MIC): 4 µg/mL (≈ 16.9 µM)
- MIC ([3]; ATCC27853, mutant P101, leuRS T256P): 128 µg/mL (≈ 540 µM)
- MIC ([3]; ATCC27853, mutant P102, leuRS T256P (ditto mark)): 32 µg/mL (≈ 135 µM)
- MIC ([3]; ATCC27853, mutant P103, leuRS T256P (ditto mark)): 64 µg/mL (≈ 270 µM)
- MIC ([3]; ATCC27853, mutant P104, leuRS T256P (ditto mark)): 128 µg/mL (≈ 540 µM)
- MIC ([3]; ATCC27853, mutant P105, leuRS T256P (ditto mark)): 128 µg/mL (≈ 540 µM)
- MIC ([3]; ATCC27853, mutant P106, leuRS V342M): > 256 µg/mL
- MIC ([3]; ATCC27853, mutant P107, leuRS V342M (ditto mark)): 128 µg/mL (≈ 540 µM)
- MIC ([3]; ATCC27853, mutant P108, leuRS T252P): 128 µg/mL (≈ 540 µM)
- MIC ([3]; ATCC27853, mutant P109, leuRS V342M): 128 µg/mL (≈ 540 µM)
- MIC ([3]; ATCC27853, mutant P110, leuRS V342M (ditto mark)): > 256 µg/mL
- MIC90 ([4]; 199 isolates, read-out: MIC90): 1 µg/mL (≈ 4.22 µM)
- susceptibility category of MIC90 ([4]; GSK2251052 breakpoint, read-out: susceptibility category of MIC90): < 4 µg/mL
- MIC ([5]; ATCC13883, K 104(leuRS D345Y)): > 256 µg/mL
- MIC ([5]; ATCC13883, K 105(leuRS G229R)): > 256 µg/mL
- MIC ([5]; ATCC13883, K 107(leuRS S227F)): 32 µg/mL (≈ 135 µM)
- MIC ([5]; ATCC13883, K 108(leuRS T248P)): > 256 µg/mL
- MIC ([5]; ATCC13883, K 110(leuRS V338L)): 64 µg/mL (≈ 270 µM)
- MIC ([5]; ATCC13883, Klebsiella pneumoniae ATCC13883): 2 µg/mL (≈ 8.44 µM)
- MIC ([6]; ATCC25922, E 101(leuRS Y246H)): 64 µg/mL (≈ 270 µM)
- MIC ([6]; ATCC25922, E 102(leuRS D345G)): > 256 µg/mL
- MIC ([6]; ATCC25922, E 107(leuRS G229S)): 128 µg/mL (≈ 540 µM)
- MIC ([6]; ATCC25922, E. coli ATCC25922): 1 µg/mL (≈ 4.22 µM)
- MIC ([7]; ATCC27853, P 101 (leuRS T256P)): 128 µg/mL (≈ 540 µM)
- MIC ([7]; ATCC27853, P 106 (leuRS V342M)): > 256 µg/mL
- MIC ([7]; ATCC27853, P 108 (leuRS T252P)): > 256 µg/mL
- MIC ([7]; ATCC27853, P. aeruginosa ATCC27853): 4 µg/mL (≈ 16.9 µM)
- MIC ([8]; 24 h, subject E. Coli 2, day 1, no LeuRS change): 0.25 µg/mL
- MIC ([8]; 48 h): 512 µg/mL
- MIC ([8]; 72 h): 512 µg/mL
- MIC ([8]; 96 h): 512 µg/mL
- MIC ([8]; 120 h): 512 µg/mL
- MIC ([8]; 144 h): 1020 µg/mL
- MIC ([8]; 168 h): 1020 µg/mL
- MIC ([8]; 192 h): 1020 µg/mL
- MIC ([8]; 216 h): 1020 µg/mL
- MIC ([8]; 240 h): 1020 µg/mL
- MIC ([8]; 264 h): 1020 µg/mL
- MIC ([8]; 288 h): 1020 µg/mL
- MIC ([8]; 312 h): 1020 µg/mL
- MIC [8]: 1020 µg/mL
- GSK2251052 MIC GSK results ([8]; subject E. Coli 2, Follow-up, 5x R344H, D345A): 1024 µg/mL
- GSK2251052 MIC GSK results ([8]; subject E. Coli 2, day 9, 4x T247I, D251N): 1024 µg/mL
- GSK2251052 MIC GSK results ([8]; subject E. Coli 2, day 10, 3x T247I, A323V): 1024 µg/mL
- GSK2251052 MIC GSK results ([8]; subject E. Coli 2, day 11, 4x R344H, D345A): 1024 µg/mL
- GSK2251052 MIC GSK results ([8]; subject E. Coli 2, day 12, 4x T247I, A323V): 1024 µg/mL

— patent US9889146B2, “Benzoxaborole compounds and uses thereof” (priority 2012, dated 2018)
